Data as given in PMC8001783, “New Lignanamides with Antioxidant and Anti-Inflammatory Activities Screened Out and Identified from Warburgia ugandensis Combining Affinity Ultrafiltration LC-MS with SOD and XOD Enzymes” (Antioxidants, 2021).
“And” between values parts separate entries of the source, which are not always exact repeats. Identical values can stand only once. Marks after values point to notes of the source that are not given here.

Columns and labels:
[1] = ABTS free radical scavenging assay; details: pure compounds; 30 min, 734 nm, n = 3
Protocol: The ABTS free radical scavenging activities of extracts and pure compounds from stem barks of W. ugandensis were tested according to previous studies with slight modifications. ABTS^+ solution was prepared by mixing equal volumes of potassium persulfate (4.9 mM in H2O) and ABTS (7.0 mM in H2O) and then incubated for 12 h in the darkness. The prepared ABTS^+ solution was diluted with MeOH to ensure an absorbance value about 0.700 ± 0.005 at 734 nm. Firstly, 10 µL of appropriately diluted solution of samples was added to the 190 µL ABTS^+ solution in 96-well plate. Secondly, the mixtures were gently shaken and put at room temperature for 30 min in the darkness. Finally, the absorbance was recorded at 734 nm with multifunctional microplate reader. Trolox was used as positive control, and MeOH was used as blank control. Samples and controls were tested in triplicate (n = 3). The antioxidant activities of ABTS were expressed as IC50 and TEAC values. The inhibition of the ABTS radicals was calculated according to the following formula:ABTS scavenging activity (%) = (1 − absorbance of sample/absorbance of blank control) × 100,(2) where ABTS scavenging activities (%) were plotted against the concentration of samples to acquire the IC50.

[2] = Ferric reducing antioxidant power (FRAP) assay; details: for FRAP value: 37 °C, 10 min, 593 nm, n = 3
Protocol: The ferric reducing antioxidant power assays on different extracts and pure compounds of stem barks from W. ugandensis were tested according to previous studies with slight modifications. Firstly, freshly prepared FRAP reagent (Fe^3+-TPTZ solution) was composed of FeCl3∙6H2O (20 mM in H2O), TPTZ (10 mM in 40 mM HCl), and acetate buffer (300 mM, pH = 3.6) at a ratio of 1:1:10 (v/v/v), then incubated at 37 °C after preparation, and used within 1–2 h. Secondly, 10 µL of appropriately diluted solution of samples was added to the 190 µL freshly prepared FRAP reagent in 96-well plate. Thirdly, the mixtures were gently shaken and put at 37 °C for 10 min. Finally, the absorbance was recorded at 593 nm with multifunctional microplate reader. Trolox was used as a positive control, and MeOH was used as blank control. Each of the samples and controls were tested in triplicate (n = 3). The antioxidant activities of FRAP were expressed as FRAP values and TEAC values. The FRAP values were calculated and expressed as millimoles of Fe^2+ equivalents per gram of sample (mmol Fe^2+/g) based on a calibration curve plotted using FeSO4∙7H2O as standard at a concentration ranging from 0.0185 to 1.5 mM.

[3] = DPPH free radical scavenging assay; details: pure compounds; 30 min, 517 nm, n = 3
Protocol: The DPPH free radical scavenging activities of extracts and pure compounds from stem barks of W. ugandensis were tested according to previous studies with slight modifications. Firstly, 10 µL solutions of the samples, appropriately diluted with MeOH, were homogeneously mixed with 190 µL solution of DPPH (0.1 mM in MeOH) in a 96-well plate. Secondly, the mixtures were gently shaken and put at room temperature for 30 min in the darkness. Finally, the absorbance was recorded at 517 nm with multifunctional microplate reader. Trolox was used as positive control, and MeOH was used as blank control. Each of the samples and controls were tested in triplicate (n = 3). The antioxidant activities of DPPH were expressed as IC50 (concentration of samples caused 50% inhibition) and TEAC values. The TEAC values were calculated from the standard curve of Trolox and expressed as millimoles of Trolox equivalents per gram of sample (mmol TE/g). The inhibition of the DPPH radical was calculated according to the following formula:DPPH scavenging activity (%) = (1 − absorbance of sample/absorbance of blank control) × 100,(1) where DPPH scavenging activities (%) were plotted against the concentration of samples to obtain the IC50.

[4] = test system: LPS-induced NO production in RAW 264.7 macrophages; design: method as in doi:10.5012/bkcs.2013.34.10.3105, PMID 29177586, PMID 31888376; details: cited from earlier work

| Molecule | IC50 [1] | IC50 [3] | FRAP value [2] | inhibitory effect against LPS-induced NO production [4] | total ferric-reducing antioxidant power (FRAP) [2] [mmol Fe^2+/g] |
| --- | --- | --- | --- | --- | --- |
| C[C@@H]1O[C@@H](O[C@@H]2[C@@H](O)[C@H](O)[C@@H](CO)O[C@H]2c2cc(-c3cc(=O)c4c(O)cc(O)cc4o3)cc(O)c2O)[C@H](O)[C@H](O)[C@H]1O [compound 1, 2-[3-[2-O-(6-deoxy-α-L-mannopyranosyl)-β-D-glucopyranosyl]-4,5-dihydroxyphenyl]-5,7-dihydroxy-4H-1-benzopyran-4-one] | 62.5 ± 4.2 µM | 25.8 ± 1.4 µM | 5.4 ± 0.7 ^b mmol Fe^2+/g |  |  |
| COc1cc(C2c3c(cc(OC)c(O)c3O)C=C(C(=O)NCCc3ccc(O)cc3)C2C(=O)NCCc2ccc(O)cc2)cc(O)c1O (centres unmarked) [compound 13] | 69.8 ± 6.3 µM | 115 ± 20.8 µM | 1.3 ± 0.2 ^c mmol Fe^2+/g |  |  |
| COc1cc(C2c3c(cc(O)c(O)c3OC)C=C(C(=O)NCCc3ccc(O)cc3)C2C(=O)NCCc2ccc(O)cc2)cc(O)c1O (centres unmarked) [compound 14] | 5.38 µM and 5.4 µM | 6.41 µM and 6.4 µM | 17.488 ± 1.625 mmol Fe^2+/g and 17.5 ± 1.6 ^a mmol Fe^2+/g |  | 17.488 ± 1.625 |

Further molecules by falling IC50 [1], results first:

| IC50 [1] | IC50 [3] | Molecule | FRAP value [2] | inhibitory effect against LPS-induced NO production [4] | total ferric-reducing antioxidant power (FRAP) [2] [mmol Fe^2+/g] |
| --- | --- | --- | --- | --- | --- |
| 463 ± 157 µM | 636 ± 290 µM | O=C(/C=C/c1ccc(O)c(O)c1)NCCc1ccc(O)cc1 [compound 7, N-trans-caffeoyltyramine] | 1.9 ± 0.1 ^c mmol Fe^2+/g | good inhibitory effects |  |
| 80 ± 10.3 µM | 59.1 ± 4.1 µM | 1-(3,4-dihydroxy-5-methoxyphenyl)-1,2-dihydroxy-7,8-dihydroxy-N-[(3,4-dihydroxyphenyl)-ethyl]-N′-[(4-hydroxyphenyl)-ethyl]-6-methoxynaphthalene-2,3-dicarboxamide [compound 11] | 2.2 ± 0.1 ^c mmol Fe^2+/g |  |  |
